# Results: US7705004B2, “Protein kinase inhibitors” (Portola Pharmaceuticals, Inc., priority 2007, dated 2010)
# Tested on: human platelet-rich plasma (PRP)
# Assay: Convulxin-induced aggregation assay (cuvette light transmittance)
# Assay type: cell-based
# Details: 125-250 ng/mL Convulxin, read-out: IC50, inhibition of convulxin-induced aggregation of platelet rich plasma
# Method: For preparation of human platelet-rich plasma (PRP) for aggregation assays, human venous blood was collected from healthy, drug-free volunteers into 0.38% sodium citrate (0.013 M, pH 7.0 final). PRP was prepared by centrifugation of whole blood at 160×g for 20 minutes at room temperature. The PRP layer was removed, transferred to a new tube, and the platelet count was adjusted, if necessary, to achieve a platelet concentration of ˜3×10^8 platelets/mL using platelet-poor plasma (PPP). PPP was prepared by centrifugation of the remaining blood sample (after removal of PRP) for 20 minutes at 800×g. This preparation of PRP may be subsequently used for aggregation assays in either a 96-well plate or standard cuvette aggregometry.
# Inhibition of Convulxin-induced aggregation was determined by cuvette light transmittance aggregation assays. Serial dilutions (1:2) of test compounds were prepared in 30% DMSO in a 96-well V-bottom plate (final DMSO concentration in the cuvette was 0.3%). The test compound (5 μl of serial dilutions in DMSO) was preincubated with PRP for 20 minutes prior to initiation of the aggregation reactions, which were performed in a ChronoLog aggregometer by addition of agonist (125-250 ng/mL Convulxin) to 495 μL of PRP at 37° C. The aggregation reaction was recorded for 4 minutes, and the maximum extent of aggregation was determined by the difference in extent of aggregation at baseline, compared to the maximum aggregation that occurred during the 4 minute period of the assay. Inhibition of aggregation was calculated as the maximum aggregation observed in the presence of inhibitor, compared to that in the absence of inhibitor. IC50s were derived by non-linear regression analysis.
row,Structure (SMILES),IC50
1,"CC(=O)N1CCN(c2ccc(Nc3nc(Nc4ccc5c(C)n[nH]c5c4)c4cc[nH]c4n3)cc2)CC1 [Compound 2-1, 1-(4-(4-(4-(3-methyl-1H-indazol-6-ylamino)-7H-pyrrolo[2,3-d]pyrimidin-2-ylamino)phenyl)piperazin-1-yl)ethanone]",≤ 50 µM
2,"CC(=O)N(C)c1ccc(Nc2nc(Nc3ccc4cn[nH]c4c3)c3cc[nH]c3n2)cc1 [Compound 6-1, N-(4-(4-(1H-indazol-6-ylamino)-7H-pyrrolo[2,3-d]pyrimidin-2-ylamino)phenyl)-N-methylacetamide]",≤ 50 µM
3,"OC1CCN(c2ccc(Nc3nc(Nc4ccc5cn[nH]c5c4)c4cc[nH]c4n3)cc2)CC1 [Compound 7-1, 1-(4-(4-(1H-indazol-6-ylamino)-7H-pyrrolo[2,3-d]pyrimidin-2-ylamino)phenyl)piperidin-4-ol]",≤ 50 µM
4,"CSc1ccc(Nc2nc(Nc3ccc4cn[nH]c4c3)c3cc[nH]c3n2)cc1 [Compound 10-1, N4-(1H-indazol-6-yl)-N2-(4-(methylthio)phenyl)-7H-pyrrolo[2,3-d]pyrimidine-2,4-diamine]",≤ 50 µM
5,"C[S+]([O-])c1ccc(Nc2nc(Nc3ccc4cn[nH]c4c3)c3cc[nH]c3n2)cc1 (centres unmarked) [Compound 10-2, N4-(1H-indazol-6-yl)-N2-(4-(methylsulfinyl)phenyl)-7H-pyrrolo[2,3-d]pyrimidine-2,4-diamine]",≤ 50 µM
6,"NS(=O)(=O)c1ccc(Nc2nc(Nc3ccc4cn[nH]c4c3)c3cc[nH]c3n2)cc1 [Compound 11-1, 4-(4-(1H-indazol-6-ylamino)-7H-pyrrolo[2,3-d]pyrimidin-2-ylamino)benzenesulfonamide]",≤ 50 µM
7,"NC(=O)c1ccc(Nc2nc(Nc3ccc4cn[nH]c4c3)c3cc[nH]c3n2)cc1 [Compound 12-1, 4-(4-(1H-indazol-6-ylamino)-7H-pyrrolo[2,3-d]pyrimidin-2-ylamino)benzamide]",≤ 50 µM
8,"CN1CCN(c2ccc(Nc3nc(Nc4ccc5cn[nH]c5c4)c4cc[nH]c4n3)cc2)CC1 [Compound 13-1, N4-(1H-indazol-6-yl)-N2-(4-(4-methylpiperazin-1-yl)phenyl)-7H-pyrrolo[2,3-d]pyrimidine-2,4-diamine]",≤ 50 µM
9,"CC(=O)N1CCN(c2ccc(Nc3nc(Nc4ccc5[nH]ncc5c4)c4cc[nH]c4n3)cc2)CC1 [Compound 14-1, 1-(4-(4-(4-(1H-indazol-5-ylamino)-7H-pyrrolo[2,3-d]pyrimidin-2-ylamino)phenyl)piperazin-1-yl)ethanone]",≤ 50 µM
10,"CC(=O)N1CCN(c2ccc(Nc3nc(Nc4ccc5cn[nH]c5c4)c4c(C)c[nH]c4n3)cc2)CC1 [Compound 15-1, 1-(4-(4-(4-(1H-indazol-6-ylamino)-5-methyl-7H-pyrrolo[2,3-d]pyrimidin-2-ylamino)phenyl)piperazin-1-yl)ethanone]",≤ 50 µM
11,"CC(=O)N(C)c1ccc(Nc2nc(Nc3ccc4nc[nH]c4c3)c3cc[nH]c3n2)cc1 [Compound 17-1, N-(4-(4-(1H-benzo[D]imidazol-6-ylamino)-7H-pyrrolo[2,3-d]pyrimidin-2-ylamino)phenyl)-N-methylacetamide]",≤ 50 µM
12,"CN(C)C(=O)C1CCN(c2ccc(Nc3nc(Nc4ccc5nc[nH]c5c4)c4cc[nH]c4n3)cc2)CC1 [Compound 18-1, 1-(4-(4-(1H-benzo[d]imidazol-6-ylamino)-7H-pyrrolo[2,3-d]pyrimidin-2-ylamino)phenyl)-N,N-dimethylpiperidine-4-carboxamide]",≤ 50 µM
13,"c1cc2c(Nc3ccc4scnc4c3)nc(Nc3ccc4cn[nH]c4c3)nc2[nH]1 [Compound 19-1, N4-(benzo[d]thiazol-5-yl)-N2-(1H-indazol-6-yl)-7H-pyrrolo[2,3-d]pyrimidine-2,4-diamine]",≤ 50 µM
14,"c1cc2c(Nc3ccc4ncsc4c3)nc(Nc3ccc4cn[nH]c4c3)nc2[nH]1 [Compound 20-1, N4-(benzo[d]thiazol-6-yl)-N2-(1H-indazol-6-yl)-7H-pyrrolo[2,3-d]pyrimidine-2,4-diamine]",≤ 50 µM
